Laboratory results from patent EP0734259B1, “Use of piperidine compounds in the treatment of schizophrenia” (NOVO NORDISK A/S, priority 1993, dated 1995).
Counter-ions that a name gives are not always drawn.

Tests used:
[1] = molecular target: muscarinic receptors; assay: ^3H-oxotremorine-M binding assay (inhibition of binding to cerebral cortical membranes); conditions: 3 nM ^3H-oxotremorine-M, rat cerebral cortical membranes, 15 minutes at 25°C, read-out: Inhibition of ^3H-Oxo
Experimental: The affinity of the compounds for the muscarinic receptors was determined using the non-selective agonist ligand, ^3H-oxotremorine-M. Birdsdall N.J.M., Hulme E.C., and Burgen A.S.V., "The Character of Muscarinic Receptors in Different Regions of the Rat Brain", 207 Proc. Roy. Soc. 1 (London, Series B, 1980). Each compound was tested to determine the affinity of the compound for the muscarinic receptors using the following procedure.
For each in vitro binding, male Sprague-Dawley (Harlan Sprague-Dawley, Indianapolis, IN) rats weighing from about 100 to about 150 grams each were sacrificed by decapitation. The brains were quickly removed and the cerebral cortex were dissected from the brain. The cerebral cortex tissue was homogenized in 10 volumes of 0.32 M sucrose and […] at about 1000 x g. The supernatant was centrifuged at about 12,000 x g for about 10 minutes and the resulting pellet was resuspended in 20 mM tris-CI, pH 7.4. The resuspended pellet was centrifuged again for about 10 minutes at about 50,000 x g. The resulting homogenate was preincubated for about 10 minutes at about 25°C and centrifuged again for about 10 minutes at about 50,000 x g. The pellet was resuspended at 1 gram of pellet per 3 ml of buffer and frozen at about -80°C until used.
The aforementioned homogenates mixture was incubated for about 15 minutes at about 25°C and then the homogenates were filtered through glass filters (Whatman, GF/C) with vacuum. The filters were washed 3 times with about 2 ml of cold tris-CI buffer, and placed in scintillation vials containing about 10 ml of scintillation fluid (Ready Protein+, Beckman, Fullerton, CA). Radioactivity trapped on the filters was determined by liquid scintillation spectrometry. Nonspecific binding was determined using 1 µM atropine. […] DeLean, A. et al. Am. J. Physiol., 235, (1978).

[2] = tested on: rats; assay: Conditioned avoidance behavior in rats; type: in vivo, rat; conditions: 3.0 mg/kg s.c. 30 min before the session, active if % avoidance reduced to at least 50%
Source text: In a conditioned avoidance test, animals learn to respond during a conditioned stimulus in order to avoid mild shock presentation. A response during the conditioned stimulus is termed an avoidance respone, a response during shock is termed an escape response; a response failure is when the animal fails to respond during either the conditioned stimlus or the shock presentation and is indicative of motor impairment. Animals rapidly learn to avoid 99% of the time. Antipsychotic drugs decrease the percentage of avoidance responses without interfering with the ability of the animal to respond since the animals do emit escape responses. The percentage of response failures is considered a measure of motor impairment.
Rats were required to press a response lever in an experimental chamber in order to avoid or escape foot-shock. Each experimental session consisted of 50 trials. During each trial, the chamber was illuminated and a tone presented for a maximum of 10 sec. A response during the tone immediately terminated the tone and the houselight, ending the trial. In the absence of a response during the tone alone, tone+foot-shock (2.0 mA) was presented for a maximum of 10 sec. A response during shock presentation immediately terminated the shock, the tone and the houselight, ending the trial.
For drug screening, a dose of 3.0 mg/kg was administered s.c. 30 min before the start of the experimental session. A drug was considered active if it reduced the % avoidance responding to at least 50% without producing greater than 50% response failures. For active drugs, a dose-response curve was subsequently determined.

| SMILES | IC50 [1] | Conditioned Avoidance % Avoidance Responses [2] |
| --- | --- | --- |
| CCCCOc1nsnc1C1=CCCN(C)C1.O=C(O)C(=O)O [Compound 4, 3-(3-Butoxy-1,2,5-thiadiazol-4-yl)-1,2,5,6-tetrahydro-1-methylpyridine oxalate] | 2 nM | 74% |
| CCCCCSc1nsnc1C1=CCCN(C)C1.O=C(O)C(=O)O [Compound 66, 3-(3-Pentylthio-1,2,5-thiadiazol-4-yl)-1,2,5,6-tetrahydro-1-methylpyridine oxalate] | 4.8 nM | 87% |
| CN1CCC=C(c2nsnc2SCCSc2cccs2)C1 [Compound 228, 3-(3-(2-(2-Thienylthio)ethylthio))-1,2,5-thiadiazol-4-yl)-1,2,5,6-tetrahydro-1-methylpyridine oxalate] | 0.6 nM | 92% |
| CCOc1nsnc1C1=CCCN(C)C1.O=C(O)C(=O)O [Compound 2, 3-(3-Ethoxy-1,2,5-thiadiazol-4-yl)-1,2,5,6-tetrahydro-1-methylpyridine oxalate] | 5.7 nM | 70% |
| CCCCSc1nsnc1C1=CCCNC1.O=C(O)C(=O)O [Compound 218, 3-(3-Butylthio-1,2,5-thiadiazol-4-yl)-1,2,5,6-tetrahydropyridine oxalate] | 3.5 nM | 39% |
| Cl.FC(F)(F)COc1nsnc1C1=CCCNC1 [Compound 223, 3-(3-(2,2,2-Trifluoroethoxy)-1,2,5-thiadiazol-4-yl)-1,2,5,6-tetrahydropyridine hydrochloride] | 7.4 nM | 31% |
| CCCSc1nsnc1C1=CCCNC1.O=C(O)C(=O)O [Compound 217, 3-(3-Propylthio-1,2,5-thiadiazol-4-yl)-1,2,5,6-tetrahydropyridine oxalate] | 1.2 nM | 30% |
| CSc1nsnc1C1=CCCN(C)C1.O=C(O)C(=O)O [Compound 49, 3-(3-Methylthio-1,2,5-thiadiazol-4-yl)-1,2,5,6-tetrahydro-1-methylpyridine oxalate] | 2.3 nM | 37% |
| CCCCCCSc1nsnc1C1=CCCNC1 [Compound 220, 3-(3-Hexylthio-1,2,5-thiadiazol-4-yl-1,2,5,6-tetrahydropyridine oxalate] | 3 nM | 88% |
| CCCSc1nsnc1C1=CCCN(C)C1.O=C(O)C(=O)O [Compound 47, 3-(3-Propylthio-1,2,5-thiadiazol-4-yl)-1,2,5,6-tetrahydro-1-methylpyridine oxalate] | 0.9 nM | 49% |
| CCSc1nsnc1C1=CCCNC1.Cl [Compound 216, 3-(3-Ethylthio-1,2,5-thiadiazol-4-yl)-1,2,5,6-tetrahydropyridine hydrochloride] | 6.5 nM | 12% |
| CCSc1nsnc1C1=CCCN(C)C1.O=C(O)C(=O)O [Compound 65, 3-(3-Ethylthio-1,2,5-thiadiazol-4-yl)-1,2,5,6-tetrahydro-1-methylpyridine oxalate] | 1.9 nM | 69% |
| COc1nsnc1C1=CCCN(C)C1.O=C(O)C(=O)O [Compound 1, 1,2,5,6-Tetrahydro-3-(3-methoxy-1,2,5-thiadiazol-4-yl)-1-methylpyridine oxalate] | 22 nM | 97% |
| CCCOc1nsnc1C1=CCCN(C)C1.O=C(O)C(=O)O [Compound 3, 1,2,5,6-Tetrahydro-1-methyl-3-(3-propoxy-1,2,5-thiadiazol-4-yl)pyridine oxalate] | 1.6 nM | 71% |
| Cl.FC(F)(F)CSc1nsnc1C1=CCCNC1 [Compound 222, 3-(3-(2,2,2-Trifluoroethylthio)-1,2,5-thiadiazol-4-yl)-1,2,5,6-tetrahydropyridine hydrochloride] | 0.42 nM | 0% |
| CCCCCSc1nsnc1C1=CCCNC1.O=C(O)C(=O)O [Compound 219, 3-(3-Pentylthio-1,2,5-thiadiazol-4-yl)-1,2,5,6-tetrahydropyridine oxalate] | 5.8 nM | 79% |
| CCCCSc1nsnc1C1=CCCN(C)C1.O=C(O)C(=O)O [Compound 48, 3-(3-Butylthio-1,2,5-thiadiazol-4-yl)-1,2,5,6-tetrahydro-1-methylpyridine oxalate] | 1.7 nM | 57% |
| CCOc1nsnc1C1=CCCNC1.Cl [Compound 215, 3-(3-Ethoxy-1,2,5-thiadiazol-4-yl)-1,2,5,6-tetrahydropyridine hydrochloride] | 10.5 nM | 61% |
